Laboratory results published in patent US9676721B2, “Compounds and compositions for the inhibition of NAMPT” (FORMA TM, LLC, priority 2010, dated 2017).
pIC50: −log10 of the molar value.

Experiments:
A2780 cells = assay: In-Vitro Cell Proliferation Assay (SRB); assay type: cell-based; settings: Homo sapiens, A2780, 72 h
Experimental: In-Vitro Cell Proliferation Assay […] After overnight incubation at 37° C. and 5% CO2, the compound titrations were performed in a separate dilution plate by serially diluting the compounds in DMSO to make a 1000× stock. The compounds were then further diluted to 10× final concentration in culture media, whereupon 20 μL of each dilution was added to the plated cells with controls (e.g. DMSO and blank) to make a final volume of 200 μL. The final DMSO concentration in each well was 0.1%. The plates were then incubated for 72 hours at 37° C. in a 5% CO2 incubator. The number of viable cells was then assessed using sulforhodamine B (SRB) assay. Cells were fixed at 4° C. for 1 hour with the addition of 50 μL 30% trichloroacetic acid (TCA) to make a final concentration of 6% TCA. The plates were washed four times with H2O and allowed to dry for at least 1 hour, whereupon 100 μL of a […] SRB in 1% acetic acid solution was added to each well and incubated at room temperature for at least 30 minutes. The plates were then washed three times with 1% acetic acid, dried, and treated with 100 μL of 10 mM Tris-Base solution. The plates were then read in a microplate reader at an absorbance of 570 nm. Background was generated on a separate plate with media only. Method for Determining % Inhibition First, the signals from the background plate are averaged, then the background was subtracted from the test plates. […] Formula for Determining IC50 Values: […] Specificity of Cytotoxicity. Inhibition of NAMPT could be reversed by the addition of NAM or NMN. The specificity of the compounds were determined via cell viability assay in the presence of the compound and either NAM or NMN. Percent inhibitions were determined using the method given above.

NAMPT = NAMPT (Homo sapiens (Human), UniProt P43490); assay: Biochemical Inhibition Assay (NAMPT enzymatic reaction, NMN by mass spectrometry); settings: recombinant His-tagged NAMPT 33 nM, 1 μM NAM, 30 minutes; read-out: Biochem IC50
Experimental: Biochemical Inhibition Assay NAMPT Protein Purification Recombinant His-tagged NAMPT was produced in E. coli cells, purified over a Ni column, and further purified over a size-exclusion column by XTAL Biostructures. The NAMPT Enzymatic Reaction The NAMPT enzymatic reactions were carried out in Buffer A (50 mM Hepes pH 7.5, 50 mM NaCl, 5 mM MgCl2, and 1 mM THP) in 96-well V-bottom plates. The compound titrations were performed in a separate dilution plate by serially diluting the compounds in DMSO to make a 100× stock. […] Background and signal strength was determined by addition (or non-addition) of a serial dilution of NMN to a pre-quenched enzyme and cofactor mix. Quantification of NMN A mass spectrometry-based assay was used to measure the NAMPT reaction product (NMN) and the internal control (L-Cystathionine). NMN and L-Cystathionine were detected using the services of Biocius Lifesciences with the RapidFire system. In short, the NMN and L-Cystathionine are bound to a graphitic carbon cartridge in 0.1% formic acid, eluted in 30% acetonitrile buffer, and injected into a Sciex 4000 mass spectrometer. The components of the sample were ionized with electrospray ionization and the positive ions were detected. […] The fragments are quantified and the analyzed by the following method. % Inhibitions are Determined Using this Method. First the NMN signal is normalized to the L-Cystathionine signal by dividing the NMN signal by the L-Cystathionine signal for each well. The signal from the background wells are averaged and subtracted from the test plates. […] IC50s are Determined Using Excel and this Formula.

NAMPT, sequence (P43490 whole entry): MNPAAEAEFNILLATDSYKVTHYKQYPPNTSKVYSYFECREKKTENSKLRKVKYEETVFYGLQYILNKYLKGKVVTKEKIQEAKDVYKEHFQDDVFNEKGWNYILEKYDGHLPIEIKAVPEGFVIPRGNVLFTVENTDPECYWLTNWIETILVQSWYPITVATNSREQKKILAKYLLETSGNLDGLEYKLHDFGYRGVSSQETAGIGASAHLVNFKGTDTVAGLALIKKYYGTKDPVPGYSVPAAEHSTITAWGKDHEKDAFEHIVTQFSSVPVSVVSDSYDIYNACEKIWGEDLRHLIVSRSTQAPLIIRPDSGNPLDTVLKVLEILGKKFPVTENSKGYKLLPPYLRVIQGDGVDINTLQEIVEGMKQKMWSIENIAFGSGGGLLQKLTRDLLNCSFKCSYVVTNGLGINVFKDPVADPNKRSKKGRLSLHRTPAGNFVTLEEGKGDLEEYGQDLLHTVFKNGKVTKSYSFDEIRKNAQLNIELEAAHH

pIC50 (A2780 cells)	pIC50 (NAMPT)	Structure (SMILES)
9.10	8.92	COc1cc(S(=O)(=O)c2ccc(CNC(=NC#N)Nc3ccncc3)cc2)ccc1C [2-cyano-1-({4-[(3-methoxy-4-methylbenzene)sulfonyl]phenyl}methyl)-3-(pyridin-4-yl)guanidine]
7.85	8.54	N#CN=C(NCc1ccc(S(=O)(=O)c2cccc3cccnc23)cc1)Nc1ccncc1 [2-cyano-3-(pyridin-4-yl)-1-{[4-(quinoline-8-sulfonyl)phenyl]methyl}guanidine]
8.24	8.31	CCCOc1ccc(S(=O)(=O)c2ccc(CNC(=NC#N)Nc3ccncc3)cc2)cc1Cl [1-({4-[(3-chloro-4-propoxybenzene)sulfonyl]phenyl}methyl)-2-cyano-3-(pyridin-4-yl)guanidine]
8.24	8.49	CC(C)Oc1cccc(S(=O)(=O)c2ccc(CNC(=NC#N)Nc3ccncc3)cc2)c1 [2-cyano-1-[(4-{[3-(propan-2-yloxy)benzene]sulfonyl}phenyl)methyl]-3-(pyridin-4-yl)guanidine]
7.93	8.46	N#CN=C(NCc1ccc(S(=O)(=O)c2ccc(OC(F)(F)F)cc2)cc1)Nc1ccncc1 [2-cyano-3-(pyridin-4-yl)-1-[(4-{[4-(trifluoromethoxy)benzene]sulfonyl}phenyl)methyl]guanidine]
8.15	8.07	CN(C)c1ncc(S(=O)(=O)c2ccc(CNC(=NC#N)Nc3ccncc3)cc2)cn1 [2-cyano-1-({4-[2-(dimethylamino)pyrimidine-5-sulfonyl]phenyl}methyl)-3-(pyridin-4-yl)guanidine]
8.48	8.74	N#CN=C(NCc1ccc(S(=O)(=O)c2ccc3c(c2)OCO3)cc1)Nc1ccncc1 [1-{[4-(2H-1,3-benzodioxole-5-sulfonyl)phenyl]methyl}-2-cyano-3-(pyridin-4-yl)guanidine]
7.57	8.27	CCNC(=O)c1cccc(S(=O)(=O)c2ccc(CNC(=NC#N)Nc3ccncc3)cc2)c1 [3-[(4-{[2-cyano-3-(pyridin-4-yl)carbamimidamido]methyl}benzene)sulfonyl]-N-ethylbenzamide]
8.68	8.64	COc1cc(F)cc(S(=O)(=O)c2ccc(CNC(=NC#N)Nc3ccncc3)cc2)c1 [2-cyano-1-({4-[(3-fluoro-5-methoxybenzene)sulfonyl]phenyl}methyl)-3-(pyridin-4-yl)guanidine]
8.47	8.82	COc1cccc(S(=O)(=O)c2ccc(CNC(=NC#N)Nc3ccncc3)cc2)c1 [2-cyano-1-({4-[(3-methoxybenzene)sulfonyl]phenyl}methyl)-3-(pyridin-4-yl)guanidine]
8.04	8.37	COc1cncc(S(=O)(=O)c2ccc(CNC(=NC#N)Nc3ccncc3)cc2)c1 [2-cyano-1-{[4-(5-methoxypyridine-3-sulfonyl)phenyl]methyl}-3-(pyridin-4-yl)guanidine]
8.72	8.28	N#CN=C(NCc1ccc(S(=O)(=O)c2cc(F)cc(OCC(F)(F)F)c2)cc1)Nc1ccncc1 [2-cyano-1-[(4-{[3-fluoro-5-(2,2,2-trifluoroethoxy)benzene]sulfonyl}phenyl)methyl]-3-(pyridin-4-yl)guanidine]
8.70	9.00	COc1ccc(S(=O)(=O)c2ccc(CNC(=NC#N)Nc3ccncc3)cc2)cc1F [2-cyano-1-({4-[(3-fluoro-4-methoxybenzene)sulfonyl]phenyl}methyl)-3-(pyridin-4-yl)guanidine]
7.15	8.77	N#CN=C(NCc1ccc(S(=O)(=O)c2cccc(C(=O)N3CCOCC3)c2)cc1)Nc1ccncc1 [2-cyano-1-{[4-({3-[(morpholin-4-yl)carbonyl]benzene}sulfonyl)phenyl]methyl}-3-(pyridin-4-yl)guanidine]
8.47	8.17	COc1ccc(S(=O)(=O)c2ccc(CNC(=NC#N)Nc3ccncc3)cc2)c(OC)n1 [2-cyano-1-{[4-(2,6-dimethoxypyridine-3-sulfonyl)phenyl]methyl}-3-(pyridin-4-yl)guanidine]
7.27	7.75	CCN(CC)C(=O)c1ccc(F)c(S(=O)(=O)c2ccc(CNC(=NC#N)Nc3ccncc3)cc2)c1 [3-[(4-{[2-cyano-3-(pyridin-4-yl)carbamimidamido]methyl}benzene)sulfonyl]-N,N-diethyl-4-fluorobenzamide]
7.92	8.28	N#CN=C(NCc1ccc(S(=O)(=O)c2cncc(F)c2)cc1)Nc1ccncc1 [2-cyano-1-{[4-(5-fluoropyridine-3-sulfonyl)phenyl]methyl}-3-(pyridin-4-yl)guanidine]
8.80	8.72	Cc1ccc(S(=O)(=O)c2ccc(CNC(=NC#N)Nc3ccncc3)cc2)cc1Cl [1-({4-[(3-chloro-4-methylbenzene)sulfonyl]phenyl}methyl)-2-cyano-3-(pyridin-4-yl)guanidine]
8.31	8.59	COc1ccc(S(=O)(=O)c2ccc(CNC(=NC#N)Nc3ccncc3)cc2)cc1Cl [1-({4-[(3-chloro-4-methoxybenzene)sulfonyl]phenyl}methyl)-2-cyano-3-(pyridin-4-yl)guanidine]
8.07	8.64	Cc1ccncc1S(=O)(=O)c1ccc(CNC(=NC#N)Nc2ccncc2)cc1 [2-cyano-1-{[4-(4-methylpyridine-3-sulfonyl)phenyl]methyl}-3-(pyridin-4-yl)guanidine]
8.47	8.40	COc1ccc(S(=O)(=O)c2ccc(CNC(=NC#N)Nc3ccncc3)cc2)cc1OC [2-cyano-1-({4-[(3,4-dimethoxybenzene)sulfonyl]phenyl}methyl)-3-(pyridin-4-yl)guanidine]
8.23	8.29	N#CN=C(NCc1ccc(S(=O)(=O)c2ccc(OCC(F)(F)F)c(F)c2)cc1)Nc1ccncc1 [2-cyano-1-[(4-{[3-fluoro-4-(2,2,2-trifluoroethoxy)benzene]sulfonyl}phenyl)methyl]-3-(pyridin-4-yl)guanidine]
8.28	9.00	N#C/N=C(\NCCc1ccc(S(=O)(=O)c2ccccc2)cc1)Nc1ccncc1 [1-{2-[4-(benzenesulfonyl)phenyl]ethyl}-2-cyano-3-(pyridin-4-yl)guanidine]
8.80	8.48	Cc1cc(C)cc(S(=O)(=O)c2ccc(CNC(=NC#N)Nc3ccncc3)cc2)c1 [2-cyano-1-({4-[(3,5-dimethylbenzene)sulfonyl]phenyl}methyl)-3-(pyridin-4-yl)guanidine]
8.41	8.14	COc1ccccc1S(=O)(=O)c1ccc(CNC(=NC#N)Nc2ccncc2)cc1 [2-cyano-1-({4-[(2-methoxybenzene)sulfonyl]phenyl}methyl)-3-(pyridin-4-yl)guanidine]
7.89	8.34	CN(C)C(=O)c1cc(F)cc(S(=O)(=O)c2ccc(CNC(=NC#N)Nc3ccncc3)cc2)c1 [3-[(4-{[2-cyano-3-(pyridin-4-yl)carbamimidamido]methyl}benzene)sulfonyl]-5-fluoro-N,N-dimethylbenzamide]
8.48	8.35	Cc1ccc(F)cc1S(=O)(=O)c1ccc(CNC(=NC#N)Nc2ccncc2)cc1 [2-cyano-1-({4-[(5-fluoro-2-methylbenzene)sulfonyl]phenyl}methyl)-3-(pyridin-4-yl)guanidine]
